{
  "source": "patent EP4775209A1",
  "about": "(Ascentawits Pharmaceuticals, Ltd., priority 2023, dated 2025)",
  "key": {"[1]": {"system": "HuPrime® lung cancer LU5173 subcutaneous xenograft model", "source_text": "(§1) For the experimental procedures and relevant evaluation indicators of the aforementioned solid tumor animal efficacy models, please refer to Examples 7, 8, and 9 in Patent Application 1, namely PCT/US2016/062114, with Publication No. WO2017/087428 (corresponding to Chinese Application CN201680044608.1, with Publication No. CN108290911B), Examples 3 and 4 in Patent Application 2, namely PCT/CN2021/078115, with Publication No. WO2022178821, and Research Literature 1. The aforementioned non-clinical animal efficacy models (PDX) mentioned in the present application are all similar to those in the aforementioned literatures, and the specific operation procedures thereof are not described herein again.\nThe LU5173 is a HuPrime® xenograft model established from a lung cancer (small cell lung carcinoma) tumor of a patient.\nEfficacy was evaluated based on the relative tumor growth inhibition (TGI, %), and safety was evaluated based on animal body weight changes and mortality."}, "[2]": {"test": "Phase I solid tumor clinical trial of AST-3424 in China (CTR20191399): safety and tolerability", "assay_type": "in vivo, human", "conditions": "Day 1 and Day 8 of every 21-day treatment cycle; Chinese subjects", "protocol": "The treatment cycle was 21 days, with administration on Day 1 and Day 8. Dose escalation was conducted across five dose levels: 1.0, 2.0, 4.0, 6.0, and 8.0 mg/m^2. After discussion by the Safety Review Committee (SRC), the MTD and RP2D when administered on Day 1 and Day 8 of every 21-day treatment cycle were confirmed as 6.0 mg/m^2 (a total dose of 12 mg/m^2 per cycle). The safety and tolerability were slightly better in the U.S. subjects than in the Chinese subjects (with a marginally higher MTD/RP2D under the same dosing regimen than those in the Chinese population). The safety profile trends were consistent (most adverse events were mild in severity; the most common adverse events included anemia, decreased platelet count, fatigue, and vomiting). Other safety, PK and efficacy results were generally similar to those in the clinical trials of OBI-3424."}, "[3]": {"conditions": "cited from earlier work"}, "[4]": {"test": "GLP repeated-administration toxicity study (QD×5/21 Days) in monkeys", "assay_type": "in vivo, cynomolgus monkeys", "conditions": "5 cycles", "protocol": "In a GLP repeated-administration toxicity study in cynomolgus monkeys, AS-3424 was intravenously infused to cynomolgus monkeys at doses of 0, 0.1, 0.2, or 0.4/0.3 mg/kg over 30 minutes on Days 1-5, Days 22-26, Days 43-47, Days 64-68, and Days 85-89.\nDuring the trials, a decrease in #EOS (absolute eosinophil count), %EOS (% eosinophils), #RET (absolute reticulocyte count), and %RETIC (% reticulocytes) was primarily observed in the ≥0.1 mg/kg dose groups; a decrease in #NEUT, #LYMPH (lymphocyte absolute count), and %LYMPH (% lymphocyte) was also seen in the ≥ 0.2 mg/kg dose groups; and a decrease in WBC (white blood cell), HGB (hemoglobin), and HCT (hematocrit) was also seen in the 0.4/0.3 mg/kg dose group. Among them, the reduction in eosinophils was correlated with the reduction in the percentage of eosinophils in the bone marrow smears at the end of the administration period, and the decrease in lymphocytes was correlated with the reduction of lymphocytes in the thymic cortex under microscopic examination, which were considered to be secondary stress responses. All the above hematological changes were recoverable during the recovery period."}, "[5]": {"test": "Toxicokinetics (D1+D8/21 Days) in monkeys", "assay_type": "in vivo, cynomolgus monkeys", "conditions": "both sexes, cynomolgus monkey, in vivo, iv"}, "[6]": {"system": "HuPrime® pancreatic cancer PA1170 subcutaneous xenograft model", "test": "Pancreatic cancer PA1170 subcutaneous xenograft efficacy model", "assay_type": "in vivo, BALB/c nude mice", "conditions": "for TGI (%): Day 30, P<0.05; for mean tumor volume: Day 30 after first administration"}, "[7]": {"system": "HuPrime® pancreatic cancer PA2637 subcutaneous xenograft model", "source_text": "as §1\nPA2637 is a HuPrime® xenograft model established from a pancreatic cancer tumor of a patient.\nEfficacy was evaluated based on the relative tumor growth inhibition rate (TGI, %), and safety was evaluated based on animal body weight changes and mortality."}, "[8]": {"conditions": "cited from earlier work", "remark": "listed apart in the source"}, "[9]": {"system": "HuPrime® pancreatic cancer PA9451 subcutaneous xenograft model", "test": "Pancreatic cancer PA9451 subcutaneous xenograft efficacy model", "assay_type": "in vivo, BALB/c nude mice", "conditions": "for TGI (%): Day 36, P<0.001; for mean tumor volume: Day 36 after first administration"}, "[10]": {"test": "GLP repeated-administration toxicity study (D1+D8/21 Days) in rats", "assay_type": "in vivo, Sprague-Dawley (SD) rats", "conditions": "intravenous bolus on Days 1, 8, 22, 29", "protocol": "Rats developed test article-related, dose-dependent lesions at the injection sites and the distal ends of the tails. At the 10 mg/kg dose, there were mild and reversible changes in hematology and serum biochemistry parameters."}, "[11]": {"conditions": "Regimen A, 12 mg/m^2 dose level"}, "[12]": {"conditions": "1 mg/kg QD×5, 16 days off, QD×5"}, "[13]": {"conditions": "2 mg/kg once weekly for 2 weeks"}},
  "note": "Like-named read-outs stand apart in the source and are kept apart here.",
  "data": [
    {"smiles": "C[C@H](OP(=O)(N1CC1)N1CC1)c1ccc([N+](=O)[O-])c(Oc2cccc(C(=O)N(C)C)c2)c1", "note": "[AST-3424]", "values": [
      {"measurement": "tolerability (body weight changes and mortality)", "setting": "[1]; 1 mg/kg QD×5, 2 cycles, no animal deaths", "value": "well tolerated"},
      {"measurement": "TGI (%)", "setting": "[1]; day 32 after first administration, AST-3424 1 mg/kg QD×5, 16 days off, QD×5 (P < 0.001), ifosfamide 6.0 mg/kg QD×5/week for 2 weeks (p > 0.05)", "value": 78.56, "unit": "%"},
      {"measurement": "mean tumor volume", "setting": "[1]; day 32 after first administration, AST-3424 1 mg/kg QD×5, 16 days off, QD×5, ifosfamide 6.0 mg/kg QD×5/week for 2 weeks, vehicle 2276.68", "value": 503.91, "unit": "mm^3"},
      {"measurement": "MTD", "setting": "[2]", "value": 6.0, "unit": "mg/m^2"},
      {"measurement": "RP2D", "setting": "[2]", "value": 6.0, "unit": "mg/m^2"},
      {"measurement": "probability of grade ≥3 TEAEs", "setting": "[3]; 12 mg/m^2 on Day 1 and Day 8 of 21-day cycle (all 6 patients)", "value": 100, "unit": "%"},
      {"measurement": "probability of grade ≥3 TEAEs", "setting": "[3]; 12 mg/m^2 only on Day 1 of 21-day cycle (2 out of 6 patients)", "value": 33.3, "unit": "%"},
      {"measurement": "recommended Phase II dose (RP2D)", "setting": "[3]; 21 days per cycle, administration on Day 1 (once every 3 weeks)", "value": 12, "unit": "mg/m^2"},
      {"measurement": "dose-limiting toxicity: anemia Grade 3-4", "setting": "[3]; [11]", "value": "5 out of 6"},
      {"measurement": "dose-limiting toxicity: thrombocytopenia Grade 3-4", "setting": "[3]; [11]", "value": "5 out of 6"},
      {"measurement": "maximum tolerated dose (MTD)", "setting": "[3]; Regimen A: i.v., 21 days per cycle, administration on Day 1 and Day 8", "value": 8, "unit": "mg/m^2"},
      {"measurement": "nadir of the platelet count", "setting": "[3]; Regimen A", "value": "Day 15 or Day 22"},
      {"measurement": "patients with Grade 3 or higher anemia", "setting": "[3]; Regimen B, 14 mg/m^2, among 6 patients treated", "value": 3, "unit": "patients"},
      {"measurement": "MTD", "setting": "[3]; Regimen B: i.v., 21 days per cycle, administration only on Day 1, highest tested dose 14 mg/m^2", "value": "not reached"},
      {"measurement": "patients who experienced treatment-emergent adverse events (TRAEs)", "setting": "[3]; all 39 patients (32/39)", "value": 82, "unit": "%"},
      {"measurement": "Grade ≥3 TRAEs", "setting": "[3]; all 39 patients", "value": 49, "unit": "%"},
      {"measurement": "TRAE anemia", "setting": "[3]; all 39 patients", "value": 64, "unit": "%"},
      {"measurement": "TRAE fatigue", "setting": "[3]; all 39 patients", "value": 21, "unit": "%"},
      {"measurement": "TRAE nausea", "setting": "[3]; all 39 patients", "value": 26, "unit": "%"},
      {"measurement": "TRAE thrombocytopenia", "setting": "[3]; all 39 patients", "value": 51, "unit": "%"},
      {"measurement": "patients who experienced serious TRAEs", "setting": "[3]; all 39 patients", "value": 3, "unit": "patients"},
      {"measurement": "toxic target organs", "setting": "[4]; 0.1, 0.2, 0.4/0.3 mg/kg QD×5 per 21 days", "value": "duodenum, jejunum, colon, and cecum"},
      {"measurement": "HNSTD", "setting": "[4]; 30-minute i.v. infusion QD×5 per 21 days", "value": 0.3, "unit": "mg/kg"},
      {"measurement": "Vd", "setting": "[5]", "value": "0.223 to 0.676", "unit": "L/kg"},
      {"measurement": "clearance", "setting": "[5]", "value": "11.8 to 18.2", "unit": "mL/min/kg"},
      {"measurement": "TGI (%)", "setting": "[6]; [12]", "value": 97.60, "unit": "%"},
      {"measurement": "mean tumor volume", "setting": "[6]; 1 mg/kg QD×5, 16 days off, QD×5, vehicle 1182.66", "value": 29.50, "unit": "mm^3"},
      {"measurement": "TGI (%)", "setting": "[6]; [13]", "value": 94.83, "unit": "%"},
      {"measurement": "mean tumor volume", "setting": "[6]; [13]", "value": 64.50, "unit": "mm^3"},
      {"measurement": "tolerability (body weight changes and mortality)", "setting": "[6]; AST-3424 groups 1 mg/kg QD×5 and 2 mg/kg QW, no animal deaths, no apparent drug toxicity", "value": "well tolerated"},
      {"measurement": "tumor clearance", "setting": "[7]; 1 mg/kg QD×5, 2 cycles, 6 mice per group", "value": "the tumor in one mouse was cleared"},
      {"measurement": "tolerability (body weight changes and mortality)", "setting": "[7]; 1 mg/kg QD×5, 2 cycles, no animal deaths, no apparent drug toxicity", "value": "well tolerated"},
      {"measurement": "TGI (%)", "setting": "[7]; Day 36 after first administration, AST-3424 1 mg/kg QD×5, 16 days off, QD×5 (P < 0.001), ifosfamide 60 mg/kg QD×5/week for 2 weeks (no statistical difference)", "value": 80.78, "unit": "%"},
      {"measurement": "mean tumor volume", "setting": "[7]; Day 36 after first administration, AST-3424 1 mg/kg QD×5, 16 days off, QD×5, ifosfamide 60 mg/kg QD×5/week for 2 weeks, vehicle 977.46", "value": 186.08, "unit": "mm^3"},
      {"measurement": "T1/2", "setting": "[8]; after intravenous OBI-3424, US patients, parent drug and metabolite", "value": "approximately 0.4 hours"},
      {"measurement": "pharmacokinetic characteristics", "setting": "[8]; doses ranging from 1 to 14 mg/m^2, minimal accumulation after repeated administration", "value": "linear pharmacokinetic characteristics"},
      {"measurement": "TGI (%)", "setting": "[9]; 0.5 mg/kg QD×5, 16 days off, QD×5", "value": 91.77, "unit": "%"},
      {"measurement": "mean tumor volume", "setting": "[9]; 0.5 mg/kg QD×5, 16 days off, QD×5, vehicle 661.61", "value": 54.83, "unit": "mm^3"},
      {"measurement": "TGI (%)", "setting": "[9]; [12]", "value": 92.99, "unit": "%"},
      {"measurement": "mean tumor volume", "setting": "[9]; [12]", "value": 46.05, "unit": "mm^3"},
      {"measurement": "TGI (%)", "setting": "[9]; [13]", "value": 88.53, "unit": "%"},
      {"measurement": "mean tumor volume", "setting": "[9]; [13]", "value": 76.78, "unit": "mm^3"},
      {"measurement": "tolerability (body weight changes and mortality)", "setting": "[9]; AST-3424 groups 0.5, 1 mg/kg QD×5 and 2 mg/kg QW, no animal deaths, no apparent drug toxicity", "value": "well tolerated"},
      {"measurement": "NOAEL", "setting": "[10]; Sprague-Dawley, rat, in vivo, read-out: no-observed-adverse-effect level (NOAEL)", "value": 3, "unit": "mg/kg"},
      {"measurement": "dose at which 10% of animals showed severe toxic reactions (STD10)", "setting": "[10]", "value": 30, "unit": "mg/kg"}
    ]}
  ]
}
